Assay results reported in patent publication US10836770B2, “Imidazopyridazine compounds useful as modulators of IL-12, IL-23 and/or INF alpha responses” (priority 2016, dated 2020).
Like-named read-outs stand apart in the source and are kept apart here.

Experiments:
[1] = biological target: T1, recombinantly expressed His-tagged protein corresponding to amino acids 575-869 of human Tyk2 (Homo sapiens, UniProt P29597); assay: Probe displacement assay (scintillation proximity, radiolabeled probe); format: binding
T1 construct: made in house
T1 sequence (P29597 with tags, fused parts or gaps): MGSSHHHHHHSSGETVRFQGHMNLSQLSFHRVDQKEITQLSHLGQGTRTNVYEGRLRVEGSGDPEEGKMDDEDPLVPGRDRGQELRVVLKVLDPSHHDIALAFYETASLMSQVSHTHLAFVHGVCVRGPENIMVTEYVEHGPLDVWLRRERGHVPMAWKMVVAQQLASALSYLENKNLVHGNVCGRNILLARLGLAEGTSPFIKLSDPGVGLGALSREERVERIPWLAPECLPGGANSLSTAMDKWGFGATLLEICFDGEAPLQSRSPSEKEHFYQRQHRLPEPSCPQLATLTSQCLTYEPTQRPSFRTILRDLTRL
Protocol: The probe displacement assay is conducted as follows: In a […], test compounds along with recombinantly expressed His-tagged protein corresponding to amino acids 575-869 of human Tyk2 (sequence shown below) at 2.5 nM, 40 nM ((R)—N-(1-(3-(8-methyl-5-(methylamino)-8H-imidazo[4,5-d]thiazolo[5,4-b]pyridin-2-yl)phenyl)ethyl)-2-([^3H]methylsulfonyl)benzamide) (preparation described below) and 80 μg/mL Copper His-Tag scintillation proximity assay beads (Perkin Elmer, Catalog #RPNQ0095) in 50 mM HEPES, pH 7.5, containing 100 μg/mL bovine serum albumin and 5% DMSO were incubated for 30 minutes at room temperature. […] The IC50 value is defined as the concentration of test compound required to inhibit radiolabeled probe binding by 50%.
Protein Sequence of recombinant Hig-tagged Tyk2 (575-869):
The preparation of radiolabeled probe, (R)—N-(1-(3-(8-methyl-5-(methylamino)-8H-imidazo[4,5-d]thiazolo[5,4-b]pyridin-2-yl)phenyl)ethyl)-2-([^3H]methylsulfonyl)benzamide, was performed as described below: […]

[2] = system: IFNα-stimulated Kit225 T cells with STAT-dependent luciferase reporter; assay: Kit225 T cell assay, IFNα stimulated STAT-dependent luciferase reporter; format: cell-based, human
Protocol: (§1) Kit225 T cells with a stably-integrated STAT-dependent luciferase reporter were plated in RPMI (GIBCO) containing 10% heat-inactivated FBS (GIBCO) and 100 U/mL PenStrep (GIBCO). The cells were then stimulated with either 20 ng/mL human recombinant IL-23 or 200 U/mL human recombinant IFNα (PBL InterferonSource) for 5-6 hours. Luciferase expression was measured using the STEADY-GLO® Luciferase Assay System (PROMEGA®) according to the manufacturer's instructions.

[3] = system: IL-23-stimulated Kit225 T cells with STAT-dependent luciferase reporter; assay: Kit225 T cell assay, IL-23 stimulated STAT-dependent luciferase reporter; format: cell-based, human
Protocol: as §1

[4] = Homo sapiens, KIT225, read-out: IFNa Kit225 Reporter, LE (IC50, uM)
[5] = Homo sapiens, KIT225, read-out: IL-23 Kit225 Reporter, LE (IC50, uM)

## CNc1cc(Nc2ccsc2C(=O)NC(C)C)nn2c(C(=O)NC3CC3)cnc12 [Example 44]
[1]
  EC50: 10 nM
[2]; [4]
  IC50: 0.07 µM
[3]; [5]
  IC50: 0.14 µM

## CNc1cc(Nc2ccsc2C(=O)Nc2ccc(F)cc2)nn2c(C(=O)NC3CC3)cnc12 [Example 45]
[1]
  EC50: 20 nM
[2]; [4]
  IC50: 0.13 µM
[3]; [5]
  IC50: 0.22 µM

## CNc1cc(Nc2ccsc2C(=O)Nc2cccnc2)nn2c(C(=O)NC3CC3)cnc12 [Example 46]
[1]
  EC50: 8 nM
[2]; [4]
  IC50: 0.12 µM
[3]; [5]
  IC50: 0.1 µM

## [2H]C([2H])([2H])NC(=O)c1sccc1Nc1cc(NC)c2ncc(C(=O)NC3CC3)n2n1 [Example 47]
[1]
  EC50: 5.13 nM
[2]; [4]
  IC50: 0.05 µM
[3]; [5]
  IC50: 0.06 µM

## [2H]C([2H])([2H])NC(=O)c1sccc1Nc1cc(NC)c2ncc(C(=O)NCCOC)n2n1 [Example 48]
[1]
  EC50: 20 nM
[2]; [4]
  IC50: 0.08 µM
[3]; [5]
  IC50: 0.15 µM

## [2H]C([2H])([2H])NC(=O)c1sccc1Nc1cc(NC)c2ncc(C(=O)NCCO)n2n1 [Example 49]
[1]
  EC50: 40 nM
[2]; [4]
  IC50: 0.26 µM
[3]; [5]
  IC50: 0.27 µM

## [2H]C([2H])([2H])NC(=O)c1sccc1Nc1cc(NC)c2ncc(C(=O)NC3CCC3)n2n1 [Example 50]
[1]
  EC50: 30 nM
[2]; [4]
  IC50: 1 µM
[3]; [5]
  IC50: 0.45 µM

## CNC(=O)c1occc1Nc1cc(NC)c2ncc(C(=O)NC3CC3)n2n1 [Example 51, N-cyclopropyl-8-(methylamino)-6-((2-(methylcarbamoyl)furan-3-yl)amino)imidazo[1,2-b]pyridazine-3-carboxamide]
[1]
  EC50: 3.79 nM
[2]; [4]
  IC50: 0.04 µM
[3]; [5]
  IC50: 0.05 µM

## CCNC(=O)c1occc1Nc1cc(NC)c2ncc(C(=O)NC3CC3)n2n1 [Example 52]
[1]
  EC50: 6.73 nM
[2]; [4]
  IC50: 0.06 µM
[3]; [5]
  IC50: 0.1 µM

## [2H]C([2H])([2H])NC(=O)c1occc1Nc1cc(NC)c2ncc(C(=O)NC3CC3)n2n1 [Example 53]
[1]
  EC50: 2.82 nM
[2]; [4]
  IC50: 0.07 µM
[3]; [5]
  IC50: 0.06 µM

## CNc1cc(Nc2ccoc2C(=O)NC(C)C)nn2c(C(=O)NC3CC3)cnc12 [Example 54]
[1]
  EC50: 6.06 nM
[2]; [4]
  IC50: 0.05 µM
[3]; [5]
  IC50: 0.17 µM

## CNc1cc(Nc2ccoc2C(=O)Nc2ccc(OC)nc2)nn2c(C(=O)NC3CC3)cnc12 [Example 55]
[1]
  EC50: 2.87 nM
[2]; [4]
  IC50: 0.03 µM
[3]; [5]
  IC50: 0.06 µM

## CNc1cc(Nc2ccoc2C(=O)Nc2ccc(F)cc2)nn2c(C(=O)NC3CC3)cnc12 [Example 56]
[1]
  EC50: 2.08 nM
[2]; [4]
  IC50: 0.02 µM
[3]; [5]
  IC50: 0.03 µM

## CNc1cc(Nc2ccoc2C(=O)Nc2cccnc2)nn2c(C(=O)NC3CC3)cnc12 [Example 58]
[1]
  EC50: 3.61 nM
[2]; [4]
  IC50: 0.11 µM
[3]; [5]
  IC50: 0.15 µM

## CNC(=O)c1nscc1Nc1cc(NC)c2ncc(C(=O)NC3CC3)n2n1 [Example 59, 4-((3-(cyclopropylcarbamoyl)-8-(methylamino)imidazo[1,2-b]pyridazin-6-yl)amino)-N-methylisothiazole-3-carboxamide]
[1]
  EC50: 1.93 nM
[2]; [4]
  IC50: 0.03 µM
[3]; [5]
  IC50: 0.01 µM

## CNc1cc(Nc2csnc2C(=O)Nc2ccccc2)nn2c(C(=O)NC3CC3)cnc12 [Example 60]
[1]
  EC50: 2.69 nM
[2]; [4]
  IC50: 0.0662 µM
[3]; [5]
  IC50: 0.211 µM

## CCNC(=O)c1nscc1Nc1cc(NC)c2ncc(C(=O)NC3CC3)n2n1 [Example 62]
[1]
  EC50: 9.3 nM
[2]; [4]
  IC50: 0.18 µM
[3]; [5]
  IC50: 0.54 µM

## CNc1cc(Nc2csnc2C(=O)N[C@@H]2C[C@@H]2F)nn2c(C(=O)NC3CC3)cnc12 [Example 64]
[1]
  EC50: 1.99 nM
[2]; [4]
  IC50: 0.06 µM
[3]; [5]
  IC50: 0.08 µM

## CNc1cc(Nc2csnc2C(=O)Nc2ccc(F)cc2)nn2c(C(=O)NC3CC3)cnc12 [Example 66]
[1]
  EC50: 10 nM
[2]; [4]
  IC50: 0.11 µM
[3]; [5]
  IC50: 0.4 µM

## [2H]C([2H])([2H])NC(=O)c1nscc1Nc1cc(NC)c2ncc(C(=O)NC3CCC3)n2n1 [Example 67]
[1]
  EC50: 40 nM
[2]; [4]
  IC50: 0.23 µM
[3]; [5]
  IC50: 0.47 µM

## [2H]C([2H])([2H])NC(=O)c1nscc1Nc1cc(NC)c2ncc(C(=O)N[C@@H]3C[C@@H]3F)n2n1 [Example 68]
[1]
  EC50: 2.78 nM
[2]; [4]
  IC50: 0.05 µM
[3]; [5]
  IC50: 0.14 µM

## [2H]C([2H])([2H])NC(=O)c1nscc1Nc1cc(NC)c2ncc(C(=O)NCCOC)n2n1 [Example 69]
[1]
  EC50: 2.29 nM
[2]; [4]
  IC50: 0.01 µM
[3]; [5]
  IC50: 0.05 µM

## [2H]C([2H])([2H])NC(=O)c1nscc1Nc1cc(NC)c2ncc(C(=O)NCc3nccs3)n2n1 [Example 70]
[1]
  EC50: 20 nM
[2]; [4]
  IC50: 0.11 µM
[3]; [5]
  IC50: 0.42 µM

## CCNC(=O)c1nscc1Nc1cc(NC)c2ncc(C(=O)NC3CCC3)n2n1 [Example 71]
[1]
  EC50: 8.09 nM
[2]; [4]
  IC50: 0.21 µM
[3]; [5]
  IC50: 0.2 µM

## CCNC(=O)c1nscc1Nc1cc(NC)c2ncc(C(=O)NCCOC)n2n1 [Example 72]
[1]
  EC50: 5.78 nM
[2]; [4]
  IC50: 0.07 µM
[3]; [5]
  IC50: 0.14 µM

## CCNC(=O)c1nscc1Nc1cc(NC)c2ncc(C(=O)N[C@@H]3C[C@@H]3F)n2n1 [Example 73]
[1]
  EC50: 20 nM
[2]; [4]
  IC50: 0.2 µM
[3]; [5]
  IC50: 0.16 µM

## CCNC(=O)c1nscc1Nc1cc(NC)c2ncc(C(=O)NC(CO)CO)n2n1 [Example 74]
[1]
  EC50: 7.25 nM
[2]; [4]
  IC50: 0.02 µM
[3]; [5]
  IC50: 0.07 µM

## CCNC(=O)c1nscc1Nc1cc(NC)c2ncc(C(=O)NCc3nccs3)n2n1 [Example 75]
[1]
  EC50: 10 nM
[2]; [4]
  IC50: 2.29 µM
[3]; [5]
  IC50: 3.31 µM

## CNC(=O)c1ncsc1Nc1cc(NC)c2ncc(C(=O)NC3CC3)n2n1 [Example 77]
[1]; 2.5 nM Tyk2 (575-869), 40 nM [3H] probe, 30 minutes at room temperature, read-out: Probe Displacement EC50
  EC50: 20 nM
[2]; Kit225 T cells, 200 U/mL human recombinant IFNα, 5-6 hours, luciferase, read-out: IFNa Kit225 Reporter, LE (IC50)
  IC50: 0.22 µM
[3]; Kit225 T cells, 20 ng/mL human recombinant IL-23, 5-6 hours, luciferase, read-out: IL-23 Kit225 Reporter, LE (IC50)
  IC50: 0.57 µM

## CNC(=O)c1ncsc1Nc1cc(NC)c2ncc(C(=O)NC3CC3)n2n1 [Example 78, 5-((3-(cyclopropylcarbamoyl)-8-(methylamino)imidazo[1,2-b]pyridazin-6-yl)amino)-N-methylthiazole-4-carboxamide]
[1]
  EC50: 10 nM
[2]; [4]
  IC50: 0.26 µM
[3]; [5]
  IC50: 0.12 µM

## CCNC(=O)c1ncsc1Nc1cc(NC)c2ncc(C(=O)NC3CC3)n2n1 [Example 79]
[1]
  EC50: 20 nM
[2]; [4]
  IC50: 0.15 µM
[3]; [5]
  IC50: 0.32 µM

## CCCNC(=O)c1ncsc1Nc1cc(NC)c2ncc(C(=O)NC3CC3)n2n1 [Example 80]
[1]
  EC50: 20 nM
[2]; [4]
  IC50: 0.13 µM
[3]; [5]
  IC50: 0.14 µM

## CNc1cc(Nc2scnc2C(=O)NC(C)C)nn2c(C(=O)NC3CC3)cnc12 [Example 81]
[1]
  EC50: 3.24 nM
[2]; [4]
  IC50: 0.31 µM
[3]; [5]
  IC50: 0.3 µM

## CNc1cc(Nc2scnc2C(=O)Nc2ccccc2)nn2c(C(=O)NC3CC3)cnc12 [Example 82]
[1]
  EC50: 3.95 nM
[2]; [4]
  IC50: 0.35 µM
[3]; [5]
  IC50: 0.19 µM

## CNc1cc(Nc2scnc2C(=O)Nc2cccnc2)nn2c(C(=O)NC3CC3)cnc12 [Example 83]
[1]
  EC50: 10 nM
[2]; [4]
  IC50: 1.76 µM
[3]; [5]
  IC50: 0.16 µM

## CNC(=O)c1nc(C)sc1Nc1cc(NC)c2ncc(C(=O)NC3CC3)n2n1 [Example 84, 5-((3-(cyclopropylcarbamoyl)-8-(methylamino)imidazo[1,2-b]pyridazin-6-yl)amino)-N,2-dimethylthiazole-4-carboxamide]
[1]
  EC50: 4.51 nM
[2]; [4]
  IC50: 0.18 µM
[3]; [5]
  IC50: 0.11 µM

## CNc1cc(Nc2sc(C)nc2C(=O)NC(C)C)nn2c(C(=O)NC3CC3)cnc12 [Example 85]
[1]
  EC50: 26.7 nM
[2]; [4]
  IC50: 0.224 µM
[3]; [5]
  IC50: 0.256 µM
